Results: publication PMC5681654, “Dual protein kinase and nucleoside kinase modulators for rationally designed polypharmacology” (Nature Communications, 2017)
Entries after “also recorded” stand apart in the source; their conditions may differ.

How the values were obtained:
dCK-C3S-S74E = dCK-C3S-S74E (Homo sapiens, UniProt P27707, C45S/C59S/C9S/S74E); assay: Isothermal titration calorimetry (ITC)
Procedure: ITC was used to evaluate the binding between dCK-C3S-S74E and the selected compounds. […] Purified dCK-C3S-S74E and the compounds were diluted in the ITC buffer containing 20 mM HEPES, pH 7.5, and 200 mM NaCl. Titrations were carried out on a MicroCal ITC200 microcalorimeter (GE Healthcare) at 25 °C using 16 or 24 injections of the titrant (1−3 mM compound in the syringe) into the analyte (100 or 300 μM protein in the cell). A first small injection (0.2 μl) was included in the titration protocol in order to remove air bubbles trapped in the syringe prior titration. Because of the low solubility of several ligands, sequential titrations were employed to achieve sufficient molar ratios for reliable model fitting, and these titrations were linked together prior to data analysis using ConCat32 software (Microcal). Raw data were scaled after setting the zero to the titration saturation heat value.

recombinant human dCK = recombinant human dCK (Homo sapiens, UniProt P27707); assay: dCK kinetic assay (PK/LDH coupled, UTP as phosphate donor); settings: for effect on dCK enzymatic phosphorylation of gemcitabine: Supplementary Fig. 8; for effect on nucleoside phosphorylation by dCK: substrates 2′dC and gemcitabine, UTP, inhibitor/protein ratio 22
Procedure: Kinetic analyses were performed using a spectrophotometric continuous enzymatic-coupled assay using pyruvate kinase (PK) and lactate dehydrogenase (LDH). […] All measurements were performed on a BMG Labtech Pherastar FS apparatus. All assays were performed in triplicate and each experiment was performed at least twice. The data are presented as mean ± s.d. The results were plotted as kinetics and the velocity was determined for each condition as the slope of the linear range of the curve. […] K m (Michaelis−Menten constant) and V max (maximal velocity) values were determined using PRISM software (GraphPad Software Inc.) by fitting the experimental data according to the Michaelis−Menten approximation defined as Equation 1.1 V=Vmax⋅S∕Km+S

[1] = tested on: A549 (lung) cancer cell line; assay: Cell proliferation assay (CellTiter-Blue), A549; assay type: cell-based, human; settings: gemcitabine 0−100 µM or masitinib 0−10 µM alone, 5 days
Procedure: (§1) At the end of incubation, 10 µl of CellTiter-Blue Reagent were added to each well. The absorbance was read at 590 nm. The effect of the drugs on cells was expressed as a percentage of proliferation compared to untreated cells. […] Drug synergy effects were analysed using Combenefit (Cancer Research Cambridge Institute), a software tool that enables the visualisation, analysis and quantification of drug combination effects[49]. The data from combination treatments were processed using three synergy reference models: highest single agent (HSA) model, Loewe additivity model and Bliss independence model for HRT18 and LnCAP cell lines.

[2] = tested on: LNCaP (prostate) cancer cell line; assay: Cell proliferation assay (CellTiter-Blue), LNCaP; assay type: cell-based, human
Procedure: as §1

[3] = tested on: CHO dCK Rescue cells (partially reconstituted dCK); assay: Cell proliferation assay (CellTiter-Blue), CHO dCK Rescue; assay type: cell-based, Chinese hamster; settings: CHO dCK Rescue (low dCK expression); gemcitabine 0−1 µM; 5 days
Procedure: At the end of incubation, 10 µl of CellTiter-Blue Reagent were added to each well. The absorbance was read at 590 nm. The effect of the drugs on cells was expressed as a percentage of proliferation compared to untreated cells.
CHO dCK deficient cells (CHO dCK-) were plated in 96-well plates at a density of 5000 cells per well and incubated overnight. The cells were transfected with the pMSCV insert free (vector control) and pMSCV-dCK respectively, using FuGENE 6 Transfection Reagent (Promega) according to manufacturer recommendations. Two days after transfection, cells were plated in 6-well plates and selected in 1 mg ml^-1 Geniticin-G418 (Gibco) for 2 weeks. The positive clones were picked and expanded to establish cell lines. The stable transfection cell clones, named as CHO dCK Rescue, were controlled by western blot analysis for dCK expression levels.

[4] = tested on: CHO cells (constitutive dCK); assay: Cell proliferation assay (CellTiter-Blue), CHO; assay type: cell-based, Chinese hamster; settings: gemcitabine 0−1 µM, 5 days
Procedure: as §1

[5] = tested on: CHO dCK- cells (deficient dCK); assay: Cell proliferation assay (CellTiter-Blue), CHO dCK-; assay type: cell-based, Chinese hamster; settings: gemcitabine 0−1 µM, 5 days
Procedure: as §1

[6] = tested on: HRT18 (colon) cancer cell line; assay: Cell proliferation assay (CellTiter-Blue), HRT18; assay type: cell-based, human
Procedure: as §1

[7] = target: biotinylated dCK-C3S-S74E (Homo sapiens, UniProt P27707, C45S/C59S/C9S/S74E); assay: Bio-layer interferometry kinetics, immobilised biotinylated dCK
Procedure: BLI measurements were carried out using an Octet RED96 instrument (ForteBio). Biotinylated dCK was immobilised on SSA biosensors at a concentration of 5 μM after 1200 s. Free streptavidin sites were blocked by incubating with 10 μg ml^−1 biocytin (Sigma-Aldrich) for 100 s and 1% BSA for 1000 s. A control set of SSA biosensors were prepared in parallel by blocking the surface with biocytin instead of protein. A three-point concentration series were prepared for each compound and were measured using 60 s association and 140 s dissociation steps at 30 °C with a shake speed of 1000 r.p.m. All measurements were performed in binding buffer containing 20 mM HEPES, pH 7.5, 200 mM NaCl, 0.1% BSA and 1% DMSO. Each experiment was performed at least twice and K D, k on and k off values were determined using the global fitting procedure in the ForteBio Data Analysis Software.

[8] = target: T1, uridine-cytidine kinase 1 (UCK1) (Homo sapiens, UniProt Q9HA47); assay: UCK1 kinetic assay (PK/LDH coupled, ATP as phosphate donor); assay type: biochemical; settings: masitinib/protein ratios 0, 1, 10, 100
T1 construct: made in house; host or cells: E. coli BL21 DE3
T1 sequence (Q9HA47 1-277): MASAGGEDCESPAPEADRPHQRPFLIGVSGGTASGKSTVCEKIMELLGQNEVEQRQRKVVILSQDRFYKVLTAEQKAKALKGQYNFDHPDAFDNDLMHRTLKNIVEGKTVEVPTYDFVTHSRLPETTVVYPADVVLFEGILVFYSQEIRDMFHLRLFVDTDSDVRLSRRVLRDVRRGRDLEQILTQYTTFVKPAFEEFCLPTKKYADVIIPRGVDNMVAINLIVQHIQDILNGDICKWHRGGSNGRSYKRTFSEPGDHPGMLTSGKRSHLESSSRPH
Procedure: Kinetic analyses were performed using a spectrophotometric continuous enzymatic-coupled assay using pyruvate kinase (PK) and lactate dehydrogenase (LDH). […] . […] All assays were performed in triplicate and each experiment was performed at least twice. The data are presented as mean ± s.d. The results were plotted as kinetics and the velocity was determined for each condition as the slope of the linear range of the curve. […] . K m (Michaelis−Menten constant) and V max (maximal velocity) values were determined using PRISM software (GraphPad Software Inc.) by fitting the experimental data according to the Michaelis−Menten approximation defined as Equation 1.1 V=Vmax⋅S∕Km+S

thymidine kinase (TK1) = target: T2, thymidine kinase (TK1) (Homo sapiens, UniProt P04183); assay: TK1 kinetic assay (HTRF Transcreener ADP assay); settings: masitinib/protein ratios 1, 5, 10, 20, 40
T2 sequence (P04183 2-234 limits assumed): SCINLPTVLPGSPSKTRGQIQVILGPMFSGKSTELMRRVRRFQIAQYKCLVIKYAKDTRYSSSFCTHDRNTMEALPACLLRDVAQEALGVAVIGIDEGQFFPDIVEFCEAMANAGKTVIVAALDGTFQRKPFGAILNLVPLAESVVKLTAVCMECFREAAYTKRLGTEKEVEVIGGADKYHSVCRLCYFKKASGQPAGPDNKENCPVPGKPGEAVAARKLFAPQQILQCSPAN
Procedure: ADP and ADP-d2 compete for the binding to a monoclonal anti-ADP antibody labelled with Europium (Eu^3+) cryptate. […] The obtained signal is inversely proportional to the concentration of ADP in the sample. All measurements were performed on a BMG Labtech Pherastar FS apparatus.

Chain of recombinant human dCK (P27707 whole entry): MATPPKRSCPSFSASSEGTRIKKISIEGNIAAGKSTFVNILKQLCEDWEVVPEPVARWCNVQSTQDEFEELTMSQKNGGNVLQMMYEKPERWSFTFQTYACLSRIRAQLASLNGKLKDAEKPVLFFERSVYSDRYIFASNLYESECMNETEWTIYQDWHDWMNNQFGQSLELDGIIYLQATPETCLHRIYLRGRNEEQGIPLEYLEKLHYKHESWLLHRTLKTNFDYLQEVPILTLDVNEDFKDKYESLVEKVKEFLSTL
Chain of dCK-C3S-S74E (P27707 whole entry C9S/C45S/C59S/S74E): as the sequence (P27707 whole entry) above, with C9S, C45S, C59S, S74E counted along it
Chain of biotinylated dCK-C3S-S74E (P27707 whole entry C9S/C45S/C59S/S74E): as the sequence (P27707 whole entry) above, with C9S, C45S, C59S, S74E counted along it

Nc1ncn([C@H]2C[C@H](O)[C@@H](CO)O2)c(=O)n1 [Decitabine, decitabine]
Kd (dCK-C3S-S74E): 31 ± 5.4 µM

CNC(=O)c1ccccc1Sc1ccc2c(/C=C/c3ccccn3)n[nH]c2c1 [axitinib]
effect on dCK enzymatic phosphorylation of gemcitabine (recombinant human dCK): none of the compounds showed an activation effect

Cc1ccc(NC(=O)c2ccc(CN3CC[C@H](N(C)C)C3)c(C(F)(F)F)c2)cc1Nc1nccc(-c2cncnc2)n1 [bafetinib]
effect on nucleoside phosphorylation by dCK (recombinant human dCK): most active

COc1cc(Nc2c(C#N)cnc3cc(OCCCN4CCN(C)CC4)c(OC)cc23)c(Cl)cc1Cl [bosutinib]
effect on nucleoside phosphorylation by dCK (recombinant human dCK): most active

C#Cc1cccc(Nc2ncnc3cc(OCCOC)c(OCCOC)cc23)c1 [erlotinib]
effect on dCK enzymatic phosphorylation of gemcitabine (recombinant human dCK): none of the compounds showed an activation effect

Nc1ccn([C@@H]2O[C@H](CO)[C@@H](O)C2(F)F)c(=O)n1 [gemcitabine]
anti-proliferative effect, single agent [1]: could not induce strong anti-proliferative effects | Kd (dCK-C3S-S74E): 22.2 µM | anti-proliferative effect, single agent ([2]; LNCaP, gemcitabine 0−100 µM or masitinib 0−10 µM alone, 5 days): could not induce strong anti-proliferative effects | sensitivity to gemcitabine [3]: restored the capacity of CHO cells to respond to gemcitabine treatment | sensitivity to gemcitabine [4]: strong sensitivity to gemcitabine | sensitivity to gemcitabine [5]: did not show any anti-proliferative effect | anti-proliferative effect, single agent ([6]; gemcitabine 0−100 µM or masitinib 0−10 µM alone, 5 days): could not induce strong anti-proliferative effects | BLI signal for substrate binding [7]: could not detect any signal

Cc1ccc(NC(=O)c2ccc(CN3CCN(C)CC3)cc2)cc1Nc1nc(-c2cccnc2)cs1 [masitinib]
modulation of UCK1 enzymatic activity [8]: didn’t produce an enzymatic modulation; also recorded: did not observe an enzymatic activation | modulation of TK1 enzymatic activity (thymidine kinase (TK1)): didn’t produce an enzymatic modulation; also recorded: did not observe an enzymatic activation | drug synergy with gemcitabine (Combenefit: HSA, Loewe, Bliss models) ([2]; LnCAP): synergetic effect | drug synergy with gemcitabine (Combenefit: HSA, Loewe, Bliss models) [6]: synergetic effect

CN[C@@H]1C[C@H]2O[C@@](C)([C@@H]1OC)n1c3ccccc3c3c4c(c5c6ccccc6n2c5c31)C(=O)NC4 [staurosporine]
effect on dCK enzymatic phosphorylation of gemcitabine (recombinant human dCK): none of the compounds showed an activation effect

Cc1cc(Nc2cc(N3CCN(C)CC3)nc(Sc3ccc(NC(=O)C4CC4)cc3)n2)[nH]n1 [tozasertib]
effect on nucleoside phosphorylation by dCK (recombinant human dCK): most active
